Assay results: the NIST ThermoML archive (doi:10.1016/j.fluid.2007.09.021)
Numbers after ± are expanded uncertainties.

Assay: activity coefficient (dimensionless); of the first substance listed, at infinite dilution; xn = mol fraction of the nth substance listed
Details: Liquid, x1 = 0
[1] = 398.15 K, Differential ebulliometry
[2] = 409.15 K, Differential ebulliometry
[3] = 343.15 K, Differential ebulliometry
[4] = 368.15 K, Differential ebulliometry
[5] = 378.15 K, Differential ebulliometry
[6] = 388.15 K, Differential ebulliometry

For `CCCCO` [butan-1-ol] + CCc1ccccc1, the activity coefficient (303.15 K, Chromatography) was 11.8 ± 0.6, the activity coefficient (313.15 K, Chromatography) was 9.49 ± 0.5 and the activity coefficient (323.15 K, Chromatography) was 7.63 ± 0.39. For the same compound, the activity coefficient [1] was 2.55 ± 0.26 and the activity coefficient [2] was 2.24 ± 0.14.

With `CCO` [ethanol] + CCc1ccccc1 the activity coefficient (293.15 K, Chromatography) was 20.1 ± 0.8, the activity coefficient (303.15 K, Chromatography) was 16.2 ± 0.7 and the activity coefficient (313.15 K, Chromatography) was 13.7 ± 0.7. It also gave an activity coefficient (323.15 K, Chromatography) of 11.2 ± 0.4.

`CCc1ccccc1` [ethylbenzene] + CCCCCCO gave an activity coefficient (323.15 K, Chromatography) of 2.77 ± 0.11.

For `CCc1ccccc1` [ethylbenzene] + CCCCCO, the activity coefficient (323.15 K, Chromatography) was 3.37 ± 0.12.

`CCc1ccccc1` [ethylbenzene] + CCCCO gave an activity coefficient (323.15 K, Chromatography) of 3.84 ± 0.15.

Compound `CCc1ccccc1` [ethylbenzene] + CCCO has an activity coefficient [3] of 4.48 ± 0.08, an activity coefficient (353.15 K, Differential ebulliometry) of 4.21 ± 0.08 and an activity coefficient (363.15 K, Differential ebulliometry) of 3.98 ± 0.08. It also gave an activity coefficient (370.15 K, Differential ebulliometry) of 3.8 ± 0.08.

Work on `CCc1ccccc1` [ethylbenzene] + CCO yielded an activity coefficient (323.15 K, Differential ebulliometry) of 6.86 ± 0.14, an activity coefficient (333.15 K, Differential ebulliometry) of 6.53 ± 0.14 and an activity coefficient [3] of 6.19 ± 0.12. The activity coefficient (351.15 K, Differential ebulliometry) was 5.9 ± 0.12.

Work on `CCc1ccccc1` [ethylbenzene] + CO yielded an activity coefficient (308.15 K, Differential ebulliometry) of 12.8 ± 0.2, an activity coefficient (318.15 K, Differential ebulliometry) of 12.2 ± 0.2 and an activity coefficient (328.15 K, Differential ebulliometry) of 11.8 ± 0.2. The activity coefficient (337.15 K, Differential ebulliometry) was 11.4 ± 0.2.

Work on `CCCCCCO` [hexan-1-ol] + CCc1ccccc1 yielded an activity coefficient [4] of 3.25 ± 0.06, an activity coefficient [5] of 2.95 ± 0.18 and an activity coefficient [6] of 2.62 ± 0.06. For the same compound, the activity coefficient [1] was 2.43 ± 0.1 and the activity coefficient [2] was 2.11 ± 0.04.

Compound `CO` [methanol] + CCc1ccccc1 has an activity coefficient (293.15 K, Chromatography) of 26.2 ± 1.3, an activity coefficient (303.15 K, Chromatography) of 21.4 ± 1.1 and an activity coefficient (313.15 K, Chromatography) of 18 ± 1. For the same compound, the activity coefficient (323.15 K, Chromatography) was 15 ± 0.8.

In the case of `CCCCCO` [pentan-1-ol] + CCc1ccccc1, the activity coefficient [4] is reported as 3.62 ± 0.08, the activity coefficient [5] is reported as 3.19 ± 0.06 and the activity coefficient [6] is reported as 2.89 ± 0.06. For the same compound, the activity coefficient [1] was 2.57 ± 0.06 and the activity coefficient [2] was 2.29 ± 0.06.

In the case of `CCCO` [propan-1-ol] + CCc1ccccc1, the activity coefficient (293.15 K, Chromatography) is reported as 15.8 ± 0.8, the activity coefficient (303.15 K, Chromatography) is reported as 12.9 ± 0.7 and the activity coefficient (313.15 K, Chromatography) is reported as 10.3 ± 0.7. The activity coefficient (323.15 K, Chromatography) was 8.7 ± 0.44.
